Data as given in ChEMBL document CHEMBL1201862, “PubChem BioAssay data set” (2004).
pIC50: −log10 of the molar value. Active and inactive are the calls of the source.

Experiments:
[1] = molecular target: SUMO-activating enzyme (Homo sapiens, UniProt Q9UBT2); test: blockers of UBC9-mediated SUMO conjugation – biochemical, AlphaScreen, SUMOylation inhibitor project, confirmation (AID 2018); assay type: functional
[2] = molecular target: T1, Alkaline phosphatase, tissue-nonspecific isozyme (Homo sapiens, UniProt P05186); test: activation of tissue-nonspecific alkaline phosphatase – biochemical, TNAP isozyme, mouse IAP uHTS hits, selectivity assay for mouse IAP activator project, dose response (AID 488880); assay type: functional
T1 sequence (P05186 whole entry): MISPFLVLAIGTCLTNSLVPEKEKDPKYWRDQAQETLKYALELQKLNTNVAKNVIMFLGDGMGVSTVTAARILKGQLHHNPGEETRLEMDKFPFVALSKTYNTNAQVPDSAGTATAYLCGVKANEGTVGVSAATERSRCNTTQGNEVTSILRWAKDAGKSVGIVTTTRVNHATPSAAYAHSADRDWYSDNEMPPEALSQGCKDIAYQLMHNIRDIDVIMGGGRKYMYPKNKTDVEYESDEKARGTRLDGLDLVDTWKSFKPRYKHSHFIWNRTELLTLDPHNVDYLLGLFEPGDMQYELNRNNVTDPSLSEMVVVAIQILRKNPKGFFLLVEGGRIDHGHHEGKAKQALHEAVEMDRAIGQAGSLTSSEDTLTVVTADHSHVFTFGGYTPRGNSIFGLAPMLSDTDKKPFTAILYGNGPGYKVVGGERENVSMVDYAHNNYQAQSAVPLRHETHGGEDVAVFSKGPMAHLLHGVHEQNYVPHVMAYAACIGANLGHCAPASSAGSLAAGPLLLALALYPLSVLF

[3] = molecular target: Intestinal-type alkaline phosphatase (Mus musculus, UniProt P24822); test: PubChem AID 488785; assay type: functional
Intestinal-type alkaline phosphatase (Mus musculus, UniProt P24822), sequence (P24822 whole entry): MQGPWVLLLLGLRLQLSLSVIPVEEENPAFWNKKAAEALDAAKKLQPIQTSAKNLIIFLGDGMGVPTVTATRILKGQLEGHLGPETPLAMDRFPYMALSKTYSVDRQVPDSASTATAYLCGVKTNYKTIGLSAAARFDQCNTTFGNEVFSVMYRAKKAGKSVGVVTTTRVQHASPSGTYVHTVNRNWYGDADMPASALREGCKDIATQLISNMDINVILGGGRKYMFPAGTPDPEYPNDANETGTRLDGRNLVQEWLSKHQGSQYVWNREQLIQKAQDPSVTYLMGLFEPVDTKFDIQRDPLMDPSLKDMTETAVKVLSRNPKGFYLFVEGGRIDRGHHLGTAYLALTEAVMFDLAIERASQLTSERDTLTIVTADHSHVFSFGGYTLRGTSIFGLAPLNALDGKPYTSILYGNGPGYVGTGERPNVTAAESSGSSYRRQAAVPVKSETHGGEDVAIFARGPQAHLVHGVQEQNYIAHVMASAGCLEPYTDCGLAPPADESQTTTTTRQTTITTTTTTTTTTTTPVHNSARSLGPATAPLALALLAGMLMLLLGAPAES

[4] = molecular target: Intestinal-type alkaline phosphatase (Homo sapiens, UniProt P09923); test: inhibition of human intestinal alkaline phosphatase – biochemical, dose response (AID 488876); assay type: functional
Intestinal-type alkaline phosphatase (Homo sapiens, UniProt P09923), sequence (P09923 whole entry): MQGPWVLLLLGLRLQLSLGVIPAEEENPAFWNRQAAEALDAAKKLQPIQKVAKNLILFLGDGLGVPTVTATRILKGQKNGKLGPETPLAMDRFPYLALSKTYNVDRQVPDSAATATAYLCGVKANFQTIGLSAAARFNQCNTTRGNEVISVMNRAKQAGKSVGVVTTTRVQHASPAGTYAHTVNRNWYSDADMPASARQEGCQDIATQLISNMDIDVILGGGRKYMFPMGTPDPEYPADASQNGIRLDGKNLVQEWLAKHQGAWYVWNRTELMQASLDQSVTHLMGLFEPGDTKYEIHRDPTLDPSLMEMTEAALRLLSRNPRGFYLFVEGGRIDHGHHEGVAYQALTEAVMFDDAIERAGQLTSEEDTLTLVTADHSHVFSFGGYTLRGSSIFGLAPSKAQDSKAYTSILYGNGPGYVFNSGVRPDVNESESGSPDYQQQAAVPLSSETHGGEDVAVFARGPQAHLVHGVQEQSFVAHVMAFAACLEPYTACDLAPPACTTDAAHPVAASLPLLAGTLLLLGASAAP

[5] = molecular target: T2, Cannabinoid receptor 2 (Homo sapiens, UniProt P34972); test: SAR analysis of agonists of the Cannabinoid Receptor 2 using an Image-Based Assay - Set 2. [Related pubchem assays (depositor defined):AID1961, AID1965]; assay type: functional
T2 sequence (P34972 whole entry): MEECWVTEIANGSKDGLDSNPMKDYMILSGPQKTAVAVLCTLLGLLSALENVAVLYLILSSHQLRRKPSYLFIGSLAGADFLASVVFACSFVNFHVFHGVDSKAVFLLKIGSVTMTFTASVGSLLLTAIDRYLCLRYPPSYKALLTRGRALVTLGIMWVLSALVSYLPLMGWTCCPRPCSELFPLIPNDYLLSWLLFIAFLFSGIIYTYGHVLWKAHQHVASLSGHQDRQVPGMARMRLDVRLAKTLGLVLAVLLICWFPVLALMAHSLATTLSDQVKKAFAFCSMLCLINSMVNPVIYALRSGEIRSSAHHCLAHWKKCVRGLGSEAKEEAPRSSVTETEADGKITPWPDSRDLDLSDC

[6] = molecular target: T3, G-protein coupled receptor 55 (Homo sapiens, UniProt Q9Y2T6); test: SAR analysis of selective Agonists of GPR55 using an Image-Based Assay. [Related pubchem assays (depositor defined):AID1961, AID1965]; assay type: functional
T3 sequence (Q9Y2T6 whole entry): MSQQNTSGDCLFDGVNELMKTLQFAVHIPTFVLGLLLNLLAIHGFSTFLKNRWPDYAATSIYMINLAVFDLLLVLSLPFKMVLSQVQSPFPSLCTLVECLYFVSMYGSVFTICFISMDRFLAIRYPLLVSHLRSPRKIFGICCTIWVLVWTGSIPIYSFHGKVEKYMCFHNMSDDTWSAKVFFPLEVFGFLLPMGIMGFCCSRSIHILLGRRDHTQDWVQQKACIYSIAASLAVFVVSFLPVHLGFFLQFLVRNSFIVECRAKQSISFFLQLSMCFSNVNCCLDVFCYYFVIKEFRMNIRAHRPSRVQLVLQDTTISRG

[7] = molecular target: T3, G-protein coupled receptor 55; test: selective activators of receptor GPR55 – imaging, U2OS cells, beta-arrestin-GFP redistribution, primary screen (AID 1961); assay type: functional
[8] = molecular target: Cannabinoid receptor 1 (Homo sapiens, UniProt P21554); test: SAR analysis of antagonists of the Cannabinoid Receptor 1 using an Image-Based Assay. [Related pubchem assays (depositor defined):AID1961, AID1965]; assay type: functional
[9] = molecular target: T2, Cannabinoid receptor 2; test: SAR analysis of antagonists of the Cannabinoid Receptor 2 using an Image-Based Assay - Set 2. [Related pubchem assays (depositor defined):AID1961, AID1965]; assay type: functional
[10] = tested on: Streptococcus; test: GAS UMAA2166 growth inhibition – luminescence, BacTiterGlo, counter-screen for streptokinase expression inhibitor project, dose response (AID 1915); assay type: functional, organism-based;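 note: potency for reduction of bacterial viability or growth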
[11] = viability of PTEN-deleted HCT116 cells – cell-based, HCT116 PTEN knockout, dose response (AID 1047); assay type: functional;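 note: HCT116 colon tumor cells with PTEN knocked out; cells exposed to compound for 60 hours before readout; potency for loss of cell viability measured by luminescence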
[12] = potency of ADAM10 substrate cleavage blockers – biochemical, QFRET, dose response (AID 743254);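 note: ADAM10 enzyme with the DM2 quenched FRET peptide as substrate; EDANS fluorescence gain as the protease cuts the substrate; inhibitor potency against ADAM10 proteolytic activity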
[13] = molecular target: T4, Kappa-type opioid receptor (Homo sapiens, UniProt P41145); test: kappa opioid receptor activation potency – imaging, image-based, SAR follow-up (AID 2359); assay type: functional
T4 sequence (P41145 whole entry): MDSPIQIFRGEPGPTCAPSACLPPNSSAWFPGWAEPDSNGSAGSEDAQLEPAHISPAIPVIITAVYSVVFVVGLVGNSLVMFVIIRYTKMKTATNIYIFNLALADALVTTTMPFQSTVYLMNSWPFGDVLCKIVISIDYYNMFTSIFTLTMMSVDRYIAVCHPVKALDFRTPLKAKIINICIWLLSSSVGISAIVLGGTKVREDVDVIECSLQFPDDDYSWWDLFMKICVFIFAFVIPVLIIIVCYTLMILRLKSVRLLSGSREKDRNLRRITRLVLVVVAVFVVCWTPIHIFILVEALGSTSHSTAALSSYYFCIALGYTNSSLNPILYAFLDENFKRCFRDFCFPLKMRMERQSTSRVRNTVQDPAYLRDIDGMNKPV

[14] = molecular target: T5, Delta-type opioid receptor (Homo sapiens, UniProt P41143); test: DOR agonists, SAR follow-up, image-based (AID 2370); assay type: functional
T5 sequence (P41143 whole entry): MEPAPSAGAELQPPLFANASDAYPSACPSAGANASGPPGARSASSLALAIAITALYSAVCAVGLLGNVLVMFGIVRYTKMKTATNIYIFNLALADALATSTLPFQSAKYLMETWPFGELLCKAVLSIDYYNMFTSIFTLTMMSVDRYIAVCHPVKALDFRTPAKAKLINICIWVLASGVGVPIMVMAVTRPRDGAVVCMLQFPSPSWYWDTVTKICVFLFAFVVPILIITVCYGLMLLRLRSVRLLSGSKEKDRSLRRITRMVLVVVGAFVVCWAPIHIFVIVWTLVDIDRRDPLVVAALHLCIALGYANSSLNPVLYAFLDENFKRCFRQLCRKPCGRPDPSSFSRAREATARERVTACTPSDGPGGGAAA

[15] = Luminescence Cell-Based Dose Retest to Confirm Inhibitors of Cancer Stem Cells. [Related pubchem assays (depositor defined):AID2717, AID2721]; assay type: functional; conditions: Homo sapiens
[16] = molecular target: T6, Mu-type opioid receptor (Homo sapiens, UniProt P35372); test: mu opioid receptor activators, image-based, SAR follow-up (AID 2352); assay type: functional
T6 sequence (P35372 whole entry): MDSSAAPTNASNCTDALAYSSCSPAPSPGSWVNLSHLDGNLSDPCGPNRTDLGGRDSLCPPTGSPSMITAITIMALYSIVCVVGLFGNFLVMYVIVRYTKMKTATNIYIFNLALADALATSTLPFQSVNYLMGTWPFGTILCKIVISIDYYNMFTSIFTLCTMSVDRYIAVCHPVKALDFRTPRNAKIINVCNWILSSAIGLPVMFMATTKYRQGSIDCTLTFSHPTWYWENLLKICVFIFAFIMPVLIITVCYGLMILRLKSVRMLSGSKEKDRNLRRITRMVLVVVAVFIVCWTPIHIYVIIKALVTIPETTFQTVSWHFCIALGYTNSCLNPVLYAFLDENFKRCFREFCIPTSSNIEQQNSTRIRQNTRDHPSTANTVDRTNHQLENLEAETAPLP

[17] = molecular target: T6, Mu-type opioid receptor; test: mu opioid receptor blockers – image-based, SAR follow-up (AID 2420); assay type: functional;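 note: compounds added before stimulation of receptor with agonist DAMGO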
[18] = molecular target: T5, Delta-type opioid receptor; test: delta opioid receptor blockers – image-based, SAR follow-up (AID 2357); assay type: functional
[19] = molecular target: T4, Kappa-type opioid receptor; test: kappa opioid receptor blockers, cell-based, luminescence, beta-arrestin, SAR follow-up (AID 2285); assay type: functional
[20] = molecular target: Dual specificity protein phosphatase 3 (Homo sapiens, UniProt P51452); test: SAR VHR1 Fluorescent Assay for In Vitro dose response studies Set 2. [Related pubchem assays (depositor defined):AID1654, AID1661, AID1878]; assay type: functional
Dual specificity protein phosphatase 3, sequence (P51452 whole entry, the tested form may be a part): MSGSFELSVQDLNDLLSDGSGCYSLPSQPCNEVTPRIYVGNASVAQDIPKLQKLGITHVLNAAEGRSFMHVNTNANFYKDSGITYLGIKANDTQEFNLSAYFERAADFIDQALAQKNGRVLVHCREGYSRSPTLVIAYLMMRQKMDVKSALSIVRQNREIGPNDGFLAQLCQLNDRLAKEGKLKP

[21] = molecular target: Disintegrin and metalloproteinase domain-containing protein 17 (Homo sapiens, UniProt P78536); test: inhibition of ADAM17 substrate cleavage – biochemical, quenched FRET substrate, counter-screen for ADAM10 exosite inhibitor project, dose response (AID 743253)
Disintegrin and metalloproteinase domain-containing protein 17, sequence (P78536 whole entry, the tested form may be a part): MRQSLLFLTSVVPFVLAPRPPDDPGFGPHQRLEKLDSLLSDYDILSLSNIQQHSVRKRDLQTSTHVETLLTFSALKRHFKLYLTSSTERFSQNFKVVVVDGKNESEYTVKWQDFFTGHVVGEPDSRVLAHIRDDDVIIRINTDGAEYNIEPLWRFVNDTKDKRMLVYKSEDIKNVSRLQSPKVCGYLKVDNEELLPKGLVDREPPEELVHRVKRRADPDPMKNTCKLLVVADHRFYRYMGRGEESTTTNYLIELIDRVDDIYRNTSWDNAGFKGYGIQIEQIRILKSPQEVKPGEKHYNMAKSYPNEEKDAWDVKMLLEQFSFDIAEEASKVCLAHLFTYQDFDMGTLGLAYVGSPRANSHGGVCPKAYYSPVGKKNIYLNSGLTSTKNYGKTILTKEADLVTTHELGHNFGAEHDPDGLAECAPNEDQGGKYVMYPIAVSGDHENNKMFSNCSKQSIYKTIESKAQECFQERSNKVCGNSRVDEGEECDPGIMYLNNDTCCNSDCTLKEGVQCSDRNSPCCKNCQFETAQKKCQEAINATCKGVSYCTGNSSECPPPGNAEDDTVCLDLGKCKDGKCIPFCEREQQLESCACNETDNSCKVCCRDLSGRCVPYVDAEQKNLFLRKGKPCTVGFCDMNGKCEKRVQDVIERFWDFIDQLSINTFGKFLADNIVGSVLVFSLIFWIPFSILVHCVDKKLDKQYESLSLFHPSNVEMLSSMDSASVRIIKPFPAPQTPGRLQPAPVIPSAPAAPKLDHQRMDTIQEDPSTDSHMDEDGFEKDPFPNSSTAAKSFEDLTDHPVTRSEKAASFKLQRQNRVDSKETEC

[22] = molecular target: T7, Tyrosine-protein phosphatase non-receptor type 7 (Homo sapiens, UniProt P35236); test: SAR analysis of chemical inhibitors of HePTP using a Fluorescent assay - Set 2. [Related pubchem assays (depositor defined):AID1059, AID1077, AID1661, AID2085, AID521]; assay type: functional
T7 sequence (P35236 whole entry): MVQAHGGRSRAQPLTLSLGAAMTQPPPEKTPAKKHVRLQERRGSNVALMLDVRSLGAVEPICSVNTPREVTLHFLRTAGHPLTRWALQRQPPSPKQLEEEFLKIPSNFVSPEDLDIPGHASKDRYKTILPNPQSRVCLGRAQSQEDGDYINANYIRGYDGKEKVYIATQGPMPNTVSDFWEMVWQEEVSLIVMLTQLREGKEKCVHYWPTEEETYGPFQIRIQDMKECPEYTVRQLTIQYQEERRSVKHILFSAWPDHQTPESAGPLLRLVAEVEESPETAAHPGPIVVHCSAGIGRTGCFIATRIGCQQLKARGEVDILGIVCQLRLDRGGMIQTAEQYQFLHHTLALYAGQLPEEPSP

[23] = tested on: Streptococcus sp. 'group A'; test: Streptococcus pyogenes SK(-)GAS viability under kanamycin – luminescence, BacTiterGlo, confirmation, counter-screen for streptokinase expression inhibitor project, dose response (AID 1900); assay type: functional, organism-based
[24] = molecular target: T4, Kappa-type opioid receptor; test: kappa opioid receptor blockers, image-based, SAR follow-up (AID 2348); assay type: functional
[25] = viability of HCT116 lacking mutant beta-catenin – cell-based, human colon tumor, dose response (AID 1045); assay type: functional;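 note: HCT116 colon tumor cells with beta catenin knocked out; cells exposed to compound for 60 hours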
[26] = molecular target: T8, Streptokinase A (Streptococcus pyogenes serotype M1, UniProt P10520); test: viability-normalized secreted streptokinase activity reduction – plasminogen activation absorbance, OD405, dose response (AID 1914); assay type: functional, Streptococcus pyogenes M1 GAS;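 note: secreted streptokinase activity via plasminogen activation per viability signal from cell pellet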
T8 sequence (P10520 whole entry): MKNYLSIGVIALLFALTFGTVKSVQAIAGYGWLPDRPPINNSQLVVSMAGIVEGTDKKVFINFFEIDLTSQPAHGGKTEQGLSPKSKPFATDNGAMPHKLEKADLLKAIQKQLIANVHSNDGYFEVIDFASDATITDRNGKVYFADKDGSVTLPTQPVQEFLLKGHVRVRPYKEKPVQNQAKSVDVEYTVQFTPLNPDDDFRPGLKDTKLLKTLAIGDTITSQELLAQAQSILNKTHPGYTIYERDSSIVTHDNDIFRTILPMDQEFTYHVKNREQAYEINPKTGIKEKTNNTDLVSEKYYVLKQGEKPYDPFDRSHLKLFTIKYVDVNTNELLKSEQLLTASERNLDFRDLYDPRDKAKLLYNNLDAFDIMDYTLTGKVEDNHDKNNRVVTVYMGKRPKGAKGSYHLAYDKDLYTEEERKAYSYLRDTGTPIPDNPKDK

[27] = molecular target: T5, Delta-type opioid receptor; test: HTS Image-Based Screen for Agonists of the DOR Receptor. [Related pubchem assays (depositor defined):AID1777, AID1786, AID2133]; assay type: functional
[28] = molecular target: T4, Kappa-type opioid receptor; assay type: functional
[29] = molecular target: Beta-galactosidase (Escherichia coli, UniProt Q8VNN2); assay type: functional
[30] = molecular target: T6, Mu-type opioid receptor; test: HTS Image-Based Screen for Agonists of the MOR Receptor. [Related pubchem assays (depositor defined):AID1777, AID1785, AID1786, AID2133]; assay type: functional
[31] = molecular target: T5, Delta-type opioid receptor; test: HTS Image-Based Screen for Antagonists of the DOR Receptor. [Related pubchem assays (depositor defined):AID1777, AID1785, AID1786, AID2133]; assay type: functional
[32] = molecular target: T4, Kappa-type opioid receptor; assay type: functional; remark: listed apart in the source
[33] = molecular target: Tumor necrosis factor (Homo sapiens, UniProt P01375); test: analog potency on TNFa NF-kB signaling – cell-based, revised, SAR follow-up (AID 2337); assay type: functional
[34] = tested on: HEK293; test: cells; conditions: Homo sapiens;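 note: cells exposed to compound for 14 hours overnight before viability readout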
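Throughout, for AC50: cells exposed to compound for roughly 70 hours or longer before luminescence read.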

SUMO-activating enzyme, sequence (Q9UBE0 whole entry): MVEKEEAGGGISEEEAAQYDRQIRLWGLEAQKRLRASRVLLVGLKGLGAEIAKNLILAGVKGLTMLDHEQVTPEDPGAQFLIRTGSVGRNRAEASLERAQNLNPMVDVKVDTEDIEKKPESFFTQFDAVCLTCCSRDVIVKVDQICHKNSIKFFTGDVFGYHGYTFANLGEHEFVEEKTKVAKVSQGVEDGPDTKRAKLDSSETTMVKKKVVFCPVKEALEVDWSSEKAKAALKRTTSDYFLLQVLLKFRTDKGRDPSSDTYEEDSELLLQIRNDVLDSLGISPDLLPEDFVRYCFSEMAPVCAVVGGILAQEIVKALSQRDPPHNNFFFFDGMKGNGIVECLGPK
SUMO-activating enzyme, sequence (Q9UBT2 whole entry): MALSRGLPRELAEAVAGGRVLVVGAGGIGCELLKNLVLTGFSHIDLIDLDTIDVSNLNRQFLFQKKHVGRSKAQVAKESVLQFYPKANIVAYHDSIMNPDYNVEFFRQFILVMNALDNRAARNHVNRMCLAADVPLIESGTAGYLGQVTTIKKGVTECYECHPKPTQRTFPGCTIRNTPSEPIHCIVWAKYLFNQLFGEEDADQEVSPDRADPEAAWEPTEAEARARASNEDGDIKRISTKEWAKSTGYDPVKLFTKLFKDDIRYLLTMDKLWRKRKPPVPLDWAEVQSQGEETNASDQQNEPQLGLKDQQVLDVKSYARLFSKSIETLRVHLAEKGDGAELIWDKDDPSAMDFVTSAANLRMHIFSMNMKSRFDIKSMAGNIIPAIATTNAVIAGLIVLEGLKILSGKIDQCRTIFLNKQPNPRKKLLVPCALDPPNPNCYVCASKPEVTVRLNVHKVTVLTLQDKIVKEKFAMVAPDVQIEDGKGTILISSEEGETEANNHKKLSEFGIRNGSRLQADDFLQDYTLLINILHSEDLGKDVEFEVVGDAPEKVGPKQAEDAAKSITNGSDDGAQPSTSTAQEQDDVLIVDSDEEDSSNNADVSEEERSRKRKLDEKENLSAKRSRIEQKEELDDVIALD

CCCCCn1c(N)c(C#N)c2nc3ccccc3nc21
IC50 [1]: 15.7 µM (active)

N#Cc1cccc(NC(=O)CCNS(=O)(=O)c2ccc3nc(O)oc3c2)c1
EC50 [2]: > 100 µM (inactive)
IC50 [3]: 21.7 µM (active)
IC50 [4]: > 100 µM (inactive)

Cc1cccc(N2CCN(C(=O)c3cc(S(=O)(=O)N(C)C)ccc3N3CCCC3)CC2)c1C
EC50 [5]: > 32 µM (inactive)
EC50 [6]: 0.263 µM (active)
EC50 [7]: 0.508 µM (active)
IC50 [8]: 21.7 µM (inactive)
IC50 [9]: 15.1 µM (inactive)

O=C(NC(NC(=S)Nc1cccc(Cl)c1)C(Cl)(Cl)Cl)OCc1ccccc1 (centres undefined)
EC50 [10]: 5.92 µM (active)
EC50 [11]: 19.7 µM (active)
IC50 [12]: > 7.72 µM (active)
EC50 [13]: > 32 µM (inactive)
EC50 [14]: > 32 µM (inactive)
AC50 [15]: 1.53 µM (active)
EC50 [16]: > 32 µM (inactive)
IC50 [17]: > 32 µM (inactive)
IC50 [18]: 24.4 µM (inactive)
IC50 [19]: > 10 µM (inactive)
IC50 [20]: > 100 µM (inactive)
IC50 [21]: > 69.5 µM (inactive)
IC50 [22]: 87 µM (active)
EC50 [23]: 3.59 µM (active)
IC50 [24]: 12.3 µM (inactive)
EC50 [25]: 19.6 µM (active)
EC50 [26]: 3.92 µM (active)

Cc1cn(-c2cc(NC(=O)c3ccc(C)c(NC(=O)c4cccc(-c5cnnc(O)c5)c4)c3)cc(C(F)(F)F)c2)cn1
EC50 [27]: > 32 µM (inactive)
IC50 [28]: 9.01 µM (active)
EC50 [29]: > 31.5 µM (inactive)
EC50 [30]: > 32 µM (inactive)
IC50 [31]: > 32 µM (inactive)
pIC50 [32]: 5.29

CC(=O)c1ccc(N2CCN(S(=O)(=O)c3ccc4c(c3)CCN4C(=O)C3CC3)CC2)cc1
IC50 [33]: 16.6 µM (active)
IC50 [34]: > 20 µM (inactive)
